For this data set, the system named is CCRIS mutagenicity, Ames/micronucleus/aberration tests. As to the kind of experiment: CCRIS mutagenicity studies.

Calls of active or inactive are those of the source. No rule for the calls is given here.

The results in this text go back to PubChem BioAssay AID1259407 (Chemical Carcinogenesis Research Information System (CCRIS), 2018).

With `Nc1cc2c3ccccc3ccc2c2ccccc12`, the mutagenic call runs as follows: (Test System: AMES SALMONELLA TYPHIMURIUM, Strain/Indicator: TA98 (1,8-DNP6), Metabolic Activation: RAT LIVER, CYTOSOL, AROCLOR 1254, Method: STANDARD PLATE) “inactive; negative”; (Test System: AMES SALMONELLA TYPHIMURIUM, Strain/Indicator: TA98 (1,8-DNP6), Metabolic Activation: RAT LIVER, MICROSOMES, AROCLOR 1254, Method: STANDARD PLATE) “active; positive”; (Test System: AMES SALMONELLA TYPHIMURIUM, Strain/Indicator: TA98, Metabolic Activation: FERRET, LIVER, CYTOSOL, Method: STANDARD PLATE) “inactive; negative”; (Test System: AMES SALMONELLA TYPHIMURIUM, Strain/Indicator: TA98, Metabolic Activation: FERRET, LIVER, MICROSOMES, Method: STANDARD PLATE) “inactive; negative”; (Test System: AMES SALMONELLA TYPHIMURIUM, Strain/Indicator: TA98, Metabolic Activation: HAMSTER, LIVER, CYTOSOL, Method: STANDARD PLATE) “inactive; negative”; (Test System: AMES SALMONELLA TYPHIMURIUM, Strain/Indicator: TA98, Metabolic Activation: HAMSTER, LIVER, MICROSOMES, Method: STANDARD PLATE) “active; positive”. For the same compound, the mutagenic call reads like this: (Test System: AMES SALMONELLA TYPHIMURIUM, Strain/Indicator: TA98, Metabolic Activation: HUMAN, LIVER, CYTOSOL, Method: STANDARD PLATE) “active; positive”; (Test System: AMES SALMONELLA TYPHIMURIUM, Strain/Indicator: TA98, Metabolic Activation: NONE, Method: PREINCUBATION) “active; positive”; (Test System: AMES SALMONELLA TYPHIMURIUM, Strain/Indicator: TA98, Metabolic Activation: PIG, LIVER, CYTOSOL, Method: STANDARD PLATE) “active; positive”; (Test System: AMES SALMONELLA TYPHIMURIUM, Strain/Indicator: TA98, Metabolic Activation: PIG, LIVER, MICROSOMES, Method: STANDARD PLATE) “inactive; negative”; (Test System: AMES SALMONELLA TYPHIMURIUM, Strain/Indicator: TA98, Metabolic Activation: RAT LIVER, CYTOSOL, AROCLOR 1254, Method: STANDARD PLATE) “active; positive”; (Test System: AMES SALMONELLA TYPHIMURIUM, Strain/Indicator: TA98, Metabolic Activation: RAT LIVER, MICROSOMES, AROCLOR 1254, Method: STANDARD PLATE) “active; positive”. Besides, the mutagenic call by setting is: (Test System: AMES SALMONELLA TYPHIMURIUM, Strain/Indicator: TA98, Metabolic Activation: RAT, LIVER, CYTOSOL, AROCLOR 1254, Method: STANDARD PLATE) “active; positive”; (Test System: AMES SALMONELLA TYPHIMURIUM, Strain/Indicator: TA98, Metabolic Activation: RAT, LIVER, CYTOSOL, BENZO[A]PYRENE, Method: STANDARD PLATE) “active; positive”; (Test System: AMES SALMONELLA TYPHIMURIUM, Strain/Indicator: TA98, Metabolic Activation: RAT, LIVER, CYTOSOL, CLOFIBRATE, Method: STANDARD PLATE) “active; positive”; (Test System: AMES SALMONELLA TYPHIMURIUM, Strain/Indicator: TA98, Metabolic Activation: RAT, LIVER, CYTOSOL, DEXAMETHASONE, Method: STANDARD PLATE) “active; positive”; (Test System: AMES SALMONELLA TYPHIMURIUM, Strain/Indicator: TA98, Metabolic Activation: RAT, LIVER, CYTOSOL, ISONIAZID, Method: STANDARD PLATE) “active; positive”; (Test System: AMES SALMONELLA TYPHIMURIUM, Strain/Indicator: TA98, Metabolic Activation: RAT, LIVER, CYTOSOL, PHENOBARBITAL, Method: STANDARD PLATE) “active; positive”. The mutagenic call runs as follows: (Test System: AMES SALMONELLA TYPHIMURIUM, Strain/Indicator: TA98, Metabolic Activation: RAT, LIVER, MICROSOMES, AROCLOR 1254, Method: STANDARD PLATE) “active; positive”; (Test System: AMES SALMONELLA TYPHIMURIUM, Strain/Indicator: TA98, Metabolic Activation: RAT, LIVER, MICROSOMES, BENZO[A]PYRENE, Method: STANDARD PLATE) “active; positive”; (Test System: AMES SALMONELLA TYPHIMURIUM, Strain/Indicator: TA98, Metabolic Activation: RAT, LIVER, MICROSOMES, CLOFIBRATE, Method: STANDARD PLATE) “active; positive”; (Test System: AMES SALMONELLA TYPHIMURIUM, Strain/Indicator: TA98, Metabolic Activation: RAT, LIVER, MICROSOMES, DEXAMETHASONE, Method: STANDARD PLATE) “active; positive”; (Test System: AMES SALMONELLA TYPHIMURIUM, Strain/Indicator: TA98, Metabolic Activation: RAT, LIVER, MICROSOMES, ISONIAZID, Method: STANDARD PLATE) “active; positive”; (Test System: AMES SALMONELLA TYPHIMURIUM, Strain/Indicator: TA98, Metabolic Activation: RAT, LIVER, MICROSOMES, PHENOBARBITAL, Method: STANDARD PLATE) “active; positive”. For the same compound, the mutagenic call runs as follows: (Test System: AMES SALMONELLA TYPHIMURIUM, Strain/Indicator: TA98, Metabolic Activation: RAT, LIVER, MICROSOMES, Method: STANDARD PLATE) “active; positive”; (Test System: AMES SALMONELLA TYPHIMURIUM, Strain/Indicator: TA98, Metabolic Activation: RAT, LIVER, S-9, AROCLOR 1254, Method: PREINCUBATION) “active; positive”; (Test System: AMES SALMONELLA TYPHIMURIUM, Strain/Indicator: TA100, Metabolic Activation: NONE, Method: PREINCUBATION) “active; positive”; (Test System: AMES SALMONELLA TYPHIMURIUM, Strain/Indicator: TA100, Metabolic Activation: NONE, Method: STANDARD PLATE) “inactive; negative”; (Test System: AMES SALMONELLA TYPHIMURIUM, Strain/Indicator: TA100, Metabolic Activation: RAT, LIVER, MICROSOMES, 6-AMINOCHRYSENE, Method: STANDARD PLATE) “inactive; negative”; (Test System: AMES SALMONELLA TYPHIMURIUM, Strain/Indicator: TA100, Metabolic Activation: RAT, LIVER, MICROSOMES, AROCLOR 1254, Method: STANDARD PLATE) “active; positive”. The mutagenic call runs as follows: (Test System: AMES SALMONELLA TYPHIMURIUM, Strain/Indicator: TA100, Metabolic Activation: RAT, LIVER, MICROSOMES, Method: STANDARD PLATE) “active; positive”; (Test System: AMES SALMONELLA TYPHIMURIUM, Strain/Indicator: TA100, Metabolic Activation: RAT, LIVER, S-9, AROCLOR 1254, Method: PREINCUBATION) “active; positive”; (Test System: AMES SALMONELLA TYPHIMURIUM, Strain/Indicator: TA100, Metabolic Activation: RAT, LIVER, S-9, AROCLOR 1254, Method: STANDARD PLATE) “active; positive”; (Test System: AMES SALMONELLA TYPHIMURIUM, Strain/Indicator: TA1535, Metabolic Activation: NONE, Method: STANDARD PLATE) “inactive; negative”; (Test System: AMES SALMONELLA TYPHIMURIUM, Strain/Indicator: TA1535, Metabolic Activation: RAT, LIVER, S-9, AROCLOR 1254, Method: STANDARD PLATE) “inactive; negative”; (Test System: AMES SALMONELLA TYPHIMURIUM, Strain/Indicator: TA1537, Metabolic Activation: NONE, Method: STANDARD PLATE) “inactive; negative”. Further, the mutagenic call was “inactive; negative” (Test System: AMES SALMONELLA TYPHIMURIUM, Strain/Indicator: TA1538, Metabolic Activation: NONE, Method: STANDARD PLATE); “inactive; negative” (Test System: CHINESE HAMSTER OVARY, Strain/Indicator: CHO-K1-BH4 (HGPRT)/6-THIOGUANINE, Metabolic Activation: NONE, Method: STANDARD PLATE); “active; positive” (Test System: CHINESE HAMSTER OVARY, Strain/Indicator: CHO-K1-BH4 (HGPRT)/6-THIOGUANINE, Metabolic Activation: RAT, LIVER, S-9, AROCLOR 1254, Method: STANDARD PLATE); “inactive; negative” (Test System: CHINESE HAMSTER OVARY, Strain/Indicator: CHO-UV5 (HGPRT)/6-THIOGUANINE, Metabolic Activation: NONE, Method: STANDARD PLATE); “active; positive” (Test System: CHINESE HAMSTER OVARY, Strain/Indicator: CHO-UV5 (HGPRT)/6-THIOGUANINE, Metabolic Activation: RAT, LIVER, S-9, AROCLOR 1254, Method: STANDARD PLATE); “active; positive” (Test System: UDS GUINEA PIG HEPATOCYTES, Strain/Indicator: THY INCORP, Metabolic Activation: NONE, Method: AUTORADIOGRAPHY). Besides, the mutagenic call (Test System: UDS HUMAN HEPATOCYTES, Strain/Indicator: THY INCORP, Metabolic Activation: NONE, Method: AUTORADIOGRAPHY) is “active; positive”; the mutagenic call (Test System: UDS MONKEY HEPATOCYTES, Strain/Indicator: THY INCORP, Metabolic Activation: NONE, Method: AUTORADIOGRAPHY) was “active; positive”; the mutagenic call (Test System: UDS RAT HEPATOCYTES, Strain/Indicator: THY INCORP, Metabolic Activation: AROCLOR 1254, Method: AUTORADIOGRAPHY) was “active; positive”; the mutagenic call (Test System: UDS RAT HEPATOCYTES, Strain/Indicator: THY INCORP, Metabolic Activation: NONE, Method: AUTORADIOGRAPHY) is “active; positive”.

Turning to `CCCCCN(CCCC)N=O`, the mutagenic call (Test System: AMES SALMONELLA TYPHIMURIUM, Strain/Indicator: TA100, Metabolic Activation: RAT, LIVER, S-9, KC500 OR PHENOBARBITAL, Method: LIQUID SUSPENSION) was “active; positive”.
